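Test compounds were applied to cells in 96-well plates for 48 hours at 5 doses. At the GI50, growth is halved. TGI denotes the concentration required for complete inhibition of growth.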
Experiments:
Experiment in all cases: NCI anticancer screen, dose series, 48 h
[1] = test system: MDA-MB-435
[2] = test system: NCI-H522 lung
[3] = test system: COLO 205 colon
[4] = test system: U251 CNS
[5] = test system: T-47D breast
[6] = test system: HT29 colon
[7] = test system: PC-3 prostate
[8] = test system: OVCAR-3 ovarian
[9] = test system: OVCAR-5 ovarian
[10] = test system: HOP-62 NSCLC

SMILES	GI50 [1]	TGI [1]	GI50 [2]	TGI [2]	GI50 [3]	TGI [3]	GI50 [4]	TGI [4]	GI50 [5]	TGI [5]	GI50 [6]	TGI [6]	GI50 [7]	TGI [7]	GI50 [8]	TGI [8]	GI50 [9]	TGI [9]	GI50 [10]	TGI [10]
CC(ONC(=O)c1cc(C(F)(F)F)cc(C(F)(F)F)c1)C(=O)Nc1ccc(Cl)cc1 (stereo not given)	4.39 µM	29.7 µM	4.14 µM	22.4 µM	5.32 µM	25.8 µM	4.61 µM	> 50.5 µM	3.78 µM	> 60.8 µM	5.92 µM	27.2 µM	3.63 µM	18.4 µM	4.25 µM	> 76.6 µM	5.53 µM	25.1 µM	8.45 µM	24.6 µM
CCN(CC)c1ccc2c(c1)Oc1nc(N)c(C#N)c(N)c1C2Sc1ccc(SC)cc1 (stereo not given)	1.86 µM	3.58 µM	2.42 µM	4.31 µM	1.84 µM	3.55 µM	1.35 µM	2.7 µM	1.74 µM	3.94 µM	2.33 µM	4.61 µM	1.41 µM	2.81 µM	1.73 µM	3.17 µM	2.37 µM	4.75 µM	1.76 µM	3.26 µM
COC(CCP(=O)(c1ccccc1)c1ccccc1)(C(=O)c1ccccc1)c1ccccc1 (stereo not given)	3.64 µM	15 µM	4.71 µM	26 µM	1.64 µM	3.82 µM	5.5 µM	18.4 µM	2.06 µM	12.3 µM	4.65 µM	19.1 µM	2.15 µM	12.3 µM	5.26 µM	18.2 µM	10.1 µM	23.7 µM	11 µM	24.8 µM
COC(=O)CCC(=O)c1c(C)[nH]c(/C=C2\N=C(c3ccc[nH]3)C=C2OC)c1C	0.426 µM	1.63 µM	1.13 µM	2.86 µM	1.04 µM	3.29 µM	1.08 µM	3.2 µM	0.931 µM	4.09 µM	0.0737 µM	1.48 µM	0.647 µM	2.14 µM	0.353 µM	1.7 µM	1.48 µM	5.52 µM	0.85 µM	2.33 µM
COc1cccc(/C=N\Nc2ccc([N+](=O)[O-])cn2)c1O	5.23 µM	> 100 µM	3.34 µM	18.4 µM	27.8 µM	> 100 µM	1.93 µM	19.8 µM	3.83 µM	89.1 µM	28.8 µM	> 100 µM	14 µM	> 100 µM	2.38 µM	12 µM	5.71 µM	82.7 µM	3.89 µM	25.5 µM
O=C1Nc2ccccc2C1Cc1ccccc1 (stereo not given)		> 100 µM		> 100 µM		> 100 µM		> 100 µM		> 100 µM		> 100 µM		> 100 µM		> 100 µM		> 100 µM		> 100 µM
O=[N+]([O-])c1ccccc1N=Nc1c(O)[nH]c2ccccc12		> 100 µM		> 100 µM		> 100 µM		> 58.2 µM		> 100 µM		> 100 µM		> 100 µM		31.7 µM		> 100 µM		> 48 µM
COc1ccc(O)c(C(=O)c2ccc(C(=O)O[C@@H]3CCCNC[C@H]3NC(=O)c3ccncc3)cc2)c1F	1.9 µM	> 25 µM	1.74 µM	> 13 µM	1.16 µM	> 25 µM	1.17 µM	> 22.7 µM	1.36 µM	> 25 µM	0.944 µM	> 25 µM	3.74 µM	> 25 µM	0.961 µM	> 7.35 µM	> 19.3 µM	> 25 µM	0.514 µM	> 25 µM
O=S1(=O)CCN(Cc2ccccn2)CC1		> 100 µM		> 100 µM		> 100 µM		> 100 µM		> 100 µM		> 100 µM		> 100 µM		9.94 µM		> 100 µM		> 100 µM
CCOC(=O)CC1(O)C=CC(=O)C=C1	2.35 µg/mL	4.89 µg/mL	0.515 µg/mL	1.31 µg/mL	2.59 µg/mL	6.19 µg/mL	0.477 µg/mL	1.45 µg/mL	0.667 µg/mL	2.31 µg/mL	2.17 µg/mL	4.46 µg/mL	0.348 µg/mL	0.921 µg/mL	0.738 µg/mL	2.16 µg/mL	3.18 µg/mL	5.42 µg/mL	2.82 µg/mL	5.29 µg/mL
CCN(CC)CCOc1ccc(/C=C2\CC3C4CCC5=CC(=O)CC[C@]5(C)C4CC[C@]3(C)C2=O)cc1OC (stereo not given in full)	1.87 µM	4 µM	7.15 µM	> 100 µM	1.75 µM	4.61 µM	2.57 µM	8.39 µM	3.14 µM	17.1 µM	1.3 µM	> 100 µM	2.92 µM	13.9 µM	2.37 µM	5.07 µM	3.6 µM	17.4 µM	2.5 µM	6.37 µM
COc1ccc2c(c1)c(C1(c3cn(C)c4ccc(OC)cc34)C(=O)Nc3ccc(F)cc31)cn2C	3.77 µM	> 100 µM	2.67 µM	7.75 µM	2.62 µM	6.36 µM	4.24 µM	> 100 µM	4.75 µM	> 100 µM	3.52 µM	23 µM	3.88 µM	> 100 µM	10.2 µM	87.4 µM	9.94 µM	84.8 µM	7.62 µM	> 100 µM
N#Cc1ccccc1C#C/C=C\C#Cc1ccc(OCCCNC(=O)c2cc3ccccc3[nH]2)cc1	19 µM	42.7 µM	13.9 µM	32.3 µM	15.9 µM	44.6 µM	10.7 µM	22.5 µM	12.4 µM	29.7 µM	30.9 µM	> 100 µM	14.7 µM	45.2 µM	18.2 µM	41.4 µM	21.3 µM	48.4 µM	14.9 µM	31.1 µM
O=C(O)C1C2CC3C(OC(=O)C31)C2Br (stereo not given)		> 100 µM		> 100 µM		> 100 µM		> 100 µM		> 100 µM		> 100 µM		> 100 µM		> 100 µM		> 100 µM		> 100 µM
O=C(Nc1ccc(Br)cc1)Nc1n[nH]c2ccccc12	> 100 µM	> 100 µM	55 µM	> 100 µM	> 100 µM	> 100 µM	> 91.2 µM	> 100 µM	> 100 µM	> 100 µM	> 100 µM	> 100 µM	> 82.7 µM	> 100 µM	> 100 µM	> 100 µM	> 100 µM	> 100 µM	> 100 µM	> 100 µM
CS(=O)(=O)CCNCc1ccc(-c2ccc3ncnc(Nc4ccc(OCc5cccc(C(F)(F)F)c5)cc4)c3c2)o1	4.71 µM	10.7 µM	4.8 µM	8.91 µM	6.83 µM	> 15.5 µM	4.22 µM	9.51 µM	7.6 µM	> 23 µM	4.22 µM	8.32 µM	5.63 µM	19.9 µM	5.15 µM	11.2 µM	9.03 µM	24.3 µM	6.53 µM	16.6 µM
CC(=O)OC1COC(S[As](C)C)C(OC(C)=O)C1OC(C)=O (stereo not given)	0.0643 µM	0.358 µM	0.0321 µM	0.139 µM	0.575 µM	4.96 µM	0.639 µM	5.24 µM	2.67 µM	19.9 µM	0.558 µM	> 100 µM	0.164 µM	2.04 µM	< 0.0138 µM	0.0404 µM	0.226 µM	1.8 µM	2.29 µM	14.9 µM
